Data set [1] has as its system lymph nodes. The data set can be described thus: dye tested on rabbits for staining of the lymph nodes. It counts as in vivo. The source says: The present invention in one embodiment therefore acts as a dye that stains the lymphatic channels of the body for identification of the sentinel lymph node.
For data set [2] the following is noted: rats bearing tumors; cited from earlier work.

Turning to “Tc-99m Phthalocyanine Tetrasulfonate [Tc-99m-PCTS]”, the “staining of the lymph nodes” value in data set [1] is reported as “successfully shown to stain the lymph nodes”.

For “^99Tc-labeled-tetrasulfophtalocyanine [[^99Tc] TSPC]”, in data set [2], the “in vivo stability of the complex” value is “absence of ^99Tc accumulation in the thyroid and the stomach”; the “tissue distribution (accumulation of most of the product)” value was “accumulated in the liver, kidneys, ovaries, and uterus”; the tumor uptake result is “occurred mainly in the exterior cell layers”.

The record behind these values is patent publication US7198775B2, “Detectably labeled porphyrin compound for identifying the sentinel lymph node” (The Trustees of Columbia University in the City of New York, priority 2000, dated 2007).
